In brackets after ≈: the same amount, converted by molar mass. Read-outs that look alike come from different tables or passages of the source.
How the values were obtained:
HIV-1 (LAI) = assay: HIV-1 replication (p24) in coinfected human ex vivo lymphoid tissue; type: cell-based; conditions: lymphoid tissue coinfected with HIV-1 and HSV-2, 1 µg/ml
Experimental: Figure 7 Suppression of HSV-2 in single-infected and HIV-1 co-infected human ex vivo tonsillar tissue by adefovir and PMEO-DAPym. Panels A and B: Blocks of human tonsillar tissue from five different donors were co-inoculated ex vivo with HSV-2 (G) and HIV-1 (LAI) and treated or not with adefovir or PMEO-DAPym (1 µg/ml). For tissue from each donor, we monitored replication of both viruses by evaluating their accumulation in the culture media bathing 27 tissue blocks at different times throughout the culture. We evaluated HIV-1 replication by measuring p24gag and HSV-2 (G) replication by measuring HSV-2 viral DNA. Panel A: Presented are kinetics of HSV-2 (G) and HIV-1 (LAI) replication (insert). Each point represents the mean ± SEM of viral replication in tissues from five donors. Panel B: Presented are means ± SEM of cumulative HSV-2 (G) and HIV-1 (LAI) replication (insert). […]
For cervico-vaginal tissue, 16 blocks were infected by immersion in HSV-2G-containing medium and maintained on the gelfoam rafts. […] HSV replication was evaluated from the release of viral DNA into the culture medium as measured with quantitative real-time PCR [18]. We evaluated HIV-1 replication from the release of p24 capsid antigen using a bead-based assay.

HSV-2 (G) [1] = assay: HSV-2 replication in human ex vivo tonsillar (lymphoid) tissue, viral DNA; type: cell-based; conditions: for EC99 (viral load reduced by 2 orders of magnitude): tonsilar tissue, RT-PCR assay; for HSV-2 DNA copies: human lymphoid tissue ex vivo
From the text: Figure 5 Suppression of HSV-2 in infected human ex vivo tonsillar tissue by adefovir and PMEO-DAPym. Blocks of human tonsillar tissue were inoculated ex vivo with HSV-2 (G) and treated or not with adefovir or PMEO-DAPym. We monitored HSV-2 (G) replication by measuring viral DNA in culture media at different times throughout the culture period. Presented are means ± SEM of cumulative HSV-2 (G) replication in tissues from two to six donors. For each donor, data represent pooled viral release from 27 tissue blocks.
Figure 7 Suppression of HSV-2 in single-infected and HIV-1 co-infected human ex vivo tonsillar tissue by adefovir and PMEO-DAPym. Panels A and B: Blocks of human tonsillar tissue from five different donors were co-inoculated ex vivo with HSV-2 (G) and HIV-1 (LAI) and treated or not with adefovir or PMEO-DAPym (1 µg/ml). For tissue from each donor, we monitored replication of both viruses by evaluating their accumulation in the culture media bathing 27 tissue blocks at different times throughout the culture. We evaluated HIV-1 replication by measuring p24gag and HSV-2 (G) replication by measuring HSV-2 viral DNA. Panel A: Presented are kinetics of HSV-2 (G) and HIV-1 (LAI) replication (insert). Each point represents the mean ± SEM of viral replication in tissues from five donors. Panel B: Presented are means ± SEM of cumulative HSV-2 (G) and HIV-1 (LAI) replication (insert).
Human tonsillar tissues were obtained from patients undergoing routine tonsillectomy at the Children's National Medical Center (Washington, DC) under IRB-approved protocol. Cervical tissues were obtained through the National Disease Research Interchange (NDRI, Philadelphia, PA). Tissues were dissected into blocks of about 2×2×2 mm and placed onto collagen sponge gels in culture medium at the air-liquid interface as described earlier. For tonsillar tissue for each experimental condition, 27 tissue blocks (9 blocks/well filled with 3 ml of medium) were inoculated with HSV-1 (strain F) or HSV-2 (strains G and MS). In coinfection experiments, tissue blocks were sequentially infected with HSV-2 (G) and HIV-1 (IIIB) (obtained from the Rush University Virology Quality Assurance Laboratory, Chicago, IL). Drugs (adefovir and PMEO-DAPym) were added to the culture medium 12 h prior to viral infection and replenished at each culture medium change.
(§1) For cervico-vaginal tissue, 16 blocks were infected by immersion in HSV-2G-containing medium and maintained on the gelfoam rafts. Adefovir was added at the time of infection and replenished at each culture medium change. HSV replication was evaluated from the release of viral DNA into the culture medium as measured with quantitative real-time PCR [18]. We evaluated HIV-1 replication from the release of p24 capsid antigen using a bead-based assay.

HSV-2 (G strain) = assay: Pre-treatment of PHK cell cultures, HSV-2 infection (CPE)
Experimental: The HSV-induced cytopathic effect (CPE) was evaluated in HSV-infected HEL and PHK cultures as described [44], [48].

HSV-1 or HSV-2 = assay: Topical treatment of athymic nude mice inoculated with HSV-1 or HSV-2; type: in vivo; conditions: topical gel twice daily for 5 days, p<0.05
Experimental: Figure 8 Effects of adefovir and PMEO-DAPym on mortality in mice inoculated with HSV-1 or HSV-2. Groups of five nu/nu mice were inoculated with HSV-1 (panel A) or HSV-2 (panel B) on the lumbosacral area. Each cohort was then subjected to topical treatment twice daily for 5 consecutive days, starting on the day of viral infection. The placebo groups received a similar treatment with the test formulation without drug. Mortality was recorded over a period of 30 days. Animals were euthanized when more than 30% loss in body weight or development of paralysis occurred. We estimated survival rates according to the Kaplan-Meier method and compared them using the log-rank test (Mantel-Cox using GraphPad Prism).
Female adult NMRI athymic nude mice or hairless mice (weighing ∼20 g and approximately 4 weeks old) were scarified on the lumbosacral area over a surface of about 1 cm^2 with 5×10^3 PFU of HSV-1 (KOS) or 5×10^2 PFU of HSV-2 (G).
Formulations of adefovir and PMEO-DAPym (0.3% and 1%) in a gel (identical to that used in the CAPRISA 004 trial) were applied topically twice a day for a period of 5 days starting 1–2 h post infection. In each experiment, a group of animals was treated with a placebo formulation that contained exactly the same vehicle but without drug. […] Development of lesions and mortality were recorded over a 1-month period. […]

HSV-2 (G) [2] = assay: HSV-2 replication in human cervico-vaginal explants; type: cell-based; conditions: 1 µg/ml
Experimental: Figure 6 Suppression of HSV-2 in human cervico-vaginal tissues by adefovir and PMEO-DAPym. Blocks of human cervico-vaginal tissues were inoculated ex vivo with HSV-2 (G) or co-infected with HIV-1 and HSV-2 and treated or not with adefovir (1 µg/ml) or PMEO-DAPym (1 µg/ml). We monitored HSV-2 (G) replication by measuring viral DNA accumulated in culture media at different times throughout the culture period. Presented is cumulative HSV-2 (G) replication, with data representing pooled viral release from 16 tissue blocks.
as §1

HSV-2 (G) [3] = system: HSV-2 (G); set-up: method as in PMID 22018238; conditions: tonsilar tissue; cited from earlier work
[4] = Human alphaherpesvirus 2, read-out: 50% effective concentration, PHK, HSV-2 G, +2 h to 72 h (control, drug present whole incubation)
[5] = Human alphaherpesvirus 2, read-out: 50% effective concentration, PHK, HSV-2 G, pretreatment −2.5 h to 0 h
[6] = Human alphaherpesvirus 2, read-out: 50% effective concentration, PHK, HSV-2 G, pretreatment −6 h to 0 h
[7] = Human alphaherpesvirus 2, read-out: 50% effective concentration, PHK, HSV-2 G, pretreatment −18 h to 0 h

| Structure (SMILES) | HIV-1 inhibition (HIV-1 (LAI)) | EC99 (viral load reduced by 2 orders of magnitude) (HSV-2 (G) [1]) | EC50 (HSV-2 (G strain); [4]) | EC50 (HSV-2 (G strain); [5]) | EC50 (HSV-2 (G strain); [6]) | EC50 (HSV-2 (G strain); [7]) | virus-related morbidity and survival (HSV-1 or HSV-2) | inhibition of HSV-2 infection (HSV-2 (G) [2]) | inhibition at 0.3 µg/mL (HSV-2 (G) [1]; Human alphaherpesvirus 2, human lymphoid tissue ex vivo, 0.3 µg/mL, read-out: Inhibition of viral replication (% to control)) | inhibition at 3 µg/mL (HSV-2 (G) [1]; Human alphaherpesvirus 2, human lymphoid tissue ex vivo, 3 µg/mL, read-out: Inhibition of viral replication (% to control)) | HSV-2 DNA copies (HSV-2 (G) [1]; 0.3 µg/mL) | HSV-2 DNA copies (HSV-2 (G) [1]; 3 µg/mL) | concentration that comparably inhibited HSV-2 replication (HSV-2 (G) [3]) |
| --- | --- | --- | --- | --- | --- | --- | --- | --- | --- | --- | --- | --- | --- |
| Nc1ncnc2c1ncn2CCOCP(=O)(O)O [Adefovir, 9-(2-phosphonylmethoxyethyl)adenine] | 2 orders of magnitude | 5 µg/mL | 9.2 ± 6 µg/mL (≈ 33.7 µM) | 20 µg/mL (≈ 73.2 µM) | 11.9 µg/mL (≈ 43.6 µM) | 13.3 ± 2.6 µg/mL (≈ 48.7 µM) | significantly delayed virus-related morbidity and prolonged the survival of the mice | markedly inhibited |  |  |  |  |  |
| Nc1cc(OCCOCP(=O)(O)O)nc(N)n1 [PMEO-DAPym, 6-phosphonylmethoxyethoxy-2,4-diaminopyrimidine] | 2 orders of magnitude | 2 µg/mL | 3.5 ± 1.1 µg/mL (≈ 13.2 µM) | 31.6 µg/mL (≈ 120 µM) | 12.6 µg/mL (≈ 47.7 µM) | 8.7 ± 1.8 µg/mL (≈ 32.9 µM) | significantly delayed virus-related morbidity and prolonged the survival of the mice | markedly inhibited | 52.8% | > 99% | 5.76 e+7 copies | 8.08 e+5 copies |  |
| C[C@H](Cn1cnc2c(N)ncnc21)OCP(=O)(O)O [Tenofovir, 9-(2-phosphonylmethoxypropyl)adenine] |  |  |  |  |  |  |  |  |  |  |  |  | 240 µg/mL |
